# Experimental data: patent US7129271B2, “Compounds for pest control and methods for their use” (The United States of America as represented by the …, priority 2000, dated 2006)
# Legend:
# nymphal I. scapularis = test: Baseline dose-mortality, method of Maupin and Piesman 1994 (Example 7); format: in vivo; conditions: nymphal ticks
# Source text: Baseline dose-mortalities were established for nymphal I. scapularis for nootkatone and valencene-11,12-epoxide using the method described in Maupin, G. O., and Piesman, J., J. Med. Entomol., 31:319–21 (1994).
# A comparison of relative potency was made with published data for carbaryl and permethrin (Maupin and Piesman, 1994) and Alaska yellow cedar essential oil (Panella et al., J. Med. Entomol. 34:340–45 (1997) is presented in Table 6.
# [1] = tested on: ticks, fleas, formicids and termites; test: Persistence of biocidal activity, vials treated with 2% solutions (Example 5); format: in vivo
# Procedure: (§1) Samples of the compounds listed below Were obtained from Dr. Karchesy, a co-inventor, and screened for biocidal activities against nymphal Ixodes scapularis. In this example, 2% acetone solutions (wt./vol.) of the compounds were applied to inner surfaces of 2-dram friction cap vials. Vials and caps were treated then allowed to dry for a minimum of 4 hours before placing 10 nymphs in each container. These same vials were used to challenge additional nymphs and adult I. scapularis ticks and adult Xenopsylla cheopis fleas through five weeks to observe any possible residual activity.
# Persistence of biocidal activity was determined for nootkatone and valencene-11,12-epoxide by using the vials as treated with the 2% solutions of Example 2. […] At 11 weeks, the biocidal activity began to dissipate below the 100% mortality level.
# [2] = tested on: adult Xenopsylla cheopis fleas; test: Treated-vial biocidal screening, residual challenge (Example 2); format: in vivo; conditions: treated vials sat 5 wk; arthropods added for final 24 h
# Procedure: as §1
# (§2) Numbers in parentheses refer to length of treatment in terms of hours (h) or weeks (wk). Data is presented in terms of number killed/number tested. For test periods longer than 24 hours, the treated vials were allowed to sit for the stated period after drying (72 h, 4 wk, or 5 wk) and each group of arthropods was added to the vials for the final 24 h of the test period.
# Culex p. pipiens = test: Mosquito susceptibility, serial dilutions (Example 8); conditions: in vivo
# [3] = tested on: nymphal Ixodes scapularis; test: Treated-vial biocidal screening, 2% acetone solutions (Example 2); format: in vivo
# Procedure: as §1, §2
# Ae. aegypti adults = test: Mosquito bottle bioassay (Example 9); format: in vivo; conditions: Aedes aegypti, 24 h, 24 h exposure, 95% CI in parentheses
# [4] = tested on: adult I. scapularis ticks; test: Treated-vial biocidal screening, residual challenge (Example 2); format: in vivo, Ixodes scapularis; conditions: treated vials sat 4 wk; arthropods added for final 24 h
# Procedure: as §1, §2
# Aedes aegypti = test: Mosquito susceptibility (Example 8); conditions: in vivo
smiles,measurement,setting,value
"C[C@@H]1CCC=C2CCC(C3(C)CO3)C[C@]21C (stereo partly shown) [Compound 13, valencene-11,12-epoxide]",more effective than essential oil of Alaska yellow cedar,nymphal I. scapularis,about 98%
same,potency relative to essential oil of Alaska yellow cedar,nymphal I. scapularis,approximately 50 times
same,mortality,"[1]; 24 hour exposure at each test through 10 weeks, each group of arthropods",100%
same,time at which biocidal activity began to dissipate below the 100% mortality level,[1]; vials treated with 2% solutions,11 weeks
same,"X. cheopis adults (5 wk), number killed/number tested",[2],5/5
same,C. pipiens LD50,Culex p. pipiens,<4.5 × 10^−3
same,mortality rate at the lowest tested dosage,Culex p. pipiens,64%
same,"I. scapularis nymphs (24 h), number killed/number tested","[3]; 2% acetone solution (wt./vol.) dried in vials, 24 h",10/10
same,"I. scapularis nymphs (72 h), number killed/number tested","[3]; treated vials sat 72 h, arthropods added for final 24 h",5/5
same,LC50,Ae. aegypti adults; read-out: LC50,2.95 mg/mL
same,EC90,Ae. aegypti adults; read-out: LC90 (the source's name),19.1 mg/mL
same,"I. scapularis adults (4 wk), number killed/number tested",[4],5/5
same,A. aegypti LD50,Aedes aegypti,<4.5 × 10^−3
